Measurements published in US9724351B2, “Compounds for the treatment of paramoxyvirus viral infections” (priority 2012, dated 2017).

Columns and labels:
[1] = Cytotoxicity Determination; type: cell-based; conditions: human, HEp-2 cells, without addition of virus, CCK-8 readout, bins (Table 4: greater than 100 μM; Table 5: equal to or less than 100 μM and greater than 10 μM), read-out: 50% cytotoxicity concentration (CC50)
Procedure, shortened: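 Uninfected cells were exposed to compounds in duplicate over a 7-point ½ dilution series starting at 100 μM final, for 5 days at 37 °C, 5% CO2. CCK-8 was then added for 3-4 h, and CC50 was calculated from optical density.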

[2] = tested on: Respiratory Syncytial Virus (RSV) long strain (ATCC#VR-26); test: RSV Antiviral Assay (CPE reduction assay); type: cell-based; conditions: human respiratory syncytial virus, 120 h; HEp-2 cells infected with RSV long strain, 5 days, CCK-8 readout; bins (Table 2: less than 1 μM; Table 3: equal to or higher than 1 μM and less than 50 μM); read-out: 50% effective concentration (EC50)
Procedure, shortened: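 HEp-2 cells infected with 100 TCID50 RSV long strain per well, compounds from 100 μM or 1 μM in 9-point ⅓ dilutions, duplicates, 1% DMSO. After 5 days at 37 °C, viable cells measured by CCK-8 (A450, 630 nm background); EC50 by regression on mean O.D.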

Row | Compound | CC50 at 5 days [1] [µM] | EC50 [2] [µM]
1 | COc1cc(C(=O)CNC(=O)c2ccc(OCCCO)c(OC)c2)nc(-c2csc3c(F)cccc23)c1 [Compound 1216] | 10 to 100 | < 1
2 | CNC(=O)COc1ccc(C(=O)NCC(=O)c2ccc(OC)c(-c3ccc(F)c(Cl)c3)n2)cc1OC [Compound 1321] | 10 to 100 | 1 to 50
3 | CCc1cc(C(=O)CNC(=O)c2ccc(OCCO)c(OC)c2)nc(-c2csc3c(F)cccc23)c1OC [Compound 2104] | 10 to 100 | < 1
4 | COc1ccc(C(=O)NCC(=O)c2ccc(OC)c(-c3ccccc3C#N)n2)cc1OC [Compound 1516] | 10 to 100 | 1 to 50
5 | CCOc1cc(-c2nc(C(=O)CNC(=O)c3ccc(OC)c(OC)c3)ccc2OC)cc2ccccc12 [Compound 1509] | > 100 | 1 to 50
6 | COc1ccc(C(=O)NCC(=O)c2ccnc(-c3csc4c(F)cccc34)c2O)cc1OC [Compound 2102] | 10 to 100 | 1 to 50
7 | COc1ccc(C(=O)NCC(=O)N/N=C(\C)c2csc3ccccc23)c(OC)c1OC [Compound 481] | > 100 | 1 to 50
8 | COc1cc(C(=O)N[C@@H](CCCCN)C(=O)c2ccc(OC)c(-c3csc4c(F)cccc34)n2)ccc1OCCO [Compound 1835] | 10 to 100 | < 1
9 | COc1ccc(C(=O)NCC(=O)c2ccc(OC)c(-c3ccc(C(F)(F)F)cc3)n2)cc1OC [Compound 1531] | > 100 | < 1
10 | COc1ccc(C(=O)NCC(=O)N/N=C(\CCC(C)C)c2csc3ccccc23)cc1OC [Compound 455A] | > 100 | < 1
11 | COc1ccc(C(=O)NCC(=O)N/N=C(/c2ccccc2)c2ccc(F)cc2)cc1OC [Compound 430] | > 100 | 1 to 50
12 | COc1ccc(C(=O)NCC(=O)c2cc(Cl)cc(-c3csc4c(F)cccc34)n2)cc1OC [Compound 2604] | > 100 | 1 to 50
13 | COc1ccc(C(=O)NCC(=O)N/N=C/c2c(C)n(C)c3ccccc23)cc1OC [Compound 486] | 10 to 100 | 1 to 50
14 | COc1cc(C(=O)CNC(=O)c2ccc(OC)c(OC)c2)nc(-c2ccc(O)cc2)c1 [Compound 1401] | 10 to 100 | 1 to 50
15 | COc1cc(C(=O)NCC(=O)c2c[nH]c(-c3csc4c(F)cccc34)n2)ccc1OCCO [Compound 1240] | > 100 | 1 to 50
16 | COc1cc(C(=O)NCC(=O)N/N=C(\C)c2csc3ccccc23)ccc1OCCO [Compound 600] | > 100 | < 1
17 | COc1ccc(C(=O)NCC(=O)N/N=C2\CCCc3sc4ccccc4c32)cc1OC [Compound 446] | > 100 | < 1
18 | COc1cc(C(=O)NCC(=O)c2cc(C)c(OC)c(-c3csc4c(F)cccc34)n2)ccc1OCCO [Compound 2103] | 10 to 100 | < 1
19 | COc1cc(C(=O)NCC(=O)c2ccc(OC)c(-c3csc4ccc(C#N)cc34)n2)ccc1OCCO [Compound 1620] | 10 to 100 | 1 to 50
20 | COc1cc(C(=O)NCC(=O)N/N=C(\CC2CCCCC2)c2csc3c(F)cccc23)ccc1OCCO [Compound 605] | 10 to 100 | < 1

Row | Compound | CC50 at 5 days [1] [µM] | EC50 [2] [µM]
21 | COc1cc(Br)c(C(=O)NCC(=O)N/N=C(\C)c2csc3ccccc23)cc1OC [Compound 479] | 10 to 100 | 1 to 50
22 | COc1cc(C(=O)NCC(=O)c2ccc(OC)c(-c3n[nH]c4ccccc34)n2)ccc1OCCO [Compound 1346] | > 100 | 1 to 50
23 | COc1cc(C(=O)NCC(=O)c2cccc(-c3csc4c(F)cccc34)n2)ccc1O [Compound 1226] | 10 to 100 | 1 to 50
24 | COc1ccc(C(=O)NCC(=O)c2ccc(OC)c(-c3cnoc3)n2)cc1OC [Compound 1510] | 10 to 100 | 1 to 50
25 | COc1cc(C(=O)NCC(=O)N2CCN(c3ccc(F)c(Cl)c3)C2=O)ccc1OCCO [Compound 3900] | > 100 | 1 to 50
26 | COc1cc(OC)c(C(=O)NCC(=O)N/N=C(\C)c2csc3ccccc23)cc1OC [Compound 480] | > 100 | 1 to 50
27 | COc1cc(C(=O)NCC(=O)c2ccc(OC)c(-c3ccc(F)c(Cl)c3)n2)ccc1-c1cnn(C)c1 [Compound 2651] | 10 to 100 | 1 to 50
28 | COc1cc(C(=O)NCC(=O)c2ccc(OC)c(-c3csc4ccc(F)cc34)n2)ccc1OCCO [Compound 1609] | > 100 | < 1
29 | COc1cc(C(=O)NCC(=O)N(C)C(=O)Nc2csc3c(F)cccc23)ccc1OCCO [Compound 2802] | > 100 | 1 to 50
30 | CCNc1ccc(C(=O)NCC(=O)N/N=C(\C)c2csc3ccccc23)cc1OC [Compound 508] | > 100 | 1 to 50
31 | COc1cc(C(=O)NCC(=O)N/N=C(\C)c2csc3ccccc23)ccc1OCC1CC1 [Compound 510] | 10 to 100 | < 1
32 | COc1cc(C(=O)N[C@@H](COC(C)(C)C)C(=O)c2ccc(OC)c(-c3csc4c(F)cccc34)n2)ccc1OCCO [Compound 1819] | 10 to 100 | < 1
33 | COc1cc(C(=O)NCC(=O)c2ccc(OC)c(-c3ccc(F)c(C(F)(F)F)c3)n2)ccc1OCCO [Compound 1614] | > 100 | < 1
34 | CCNc1ccc(C(=O)NCC(=O)N/N=C(\C)c2csc3ccccc23)cc1 [Compound 501] | 10 to 100 | 1 to 50
35 | C/C(=N\NC(=O)CNC(=O)c1ccc2c(c1)OCCO2)c1csc2ccccc12 [Compound 471] | > 100 | 1 to 50
36 | COCC/C(=N/NC(=O)CNC(=O)c1ccc(OC)c(OC)c1)c1csc2c(F)cccc12 [Compound 400-16] | > 100 | 1 to 50
37 | COc1cc(C(=O)NCC(=O)c2ccc(OC)c(-c3ccncc3)n2)ccc1OCCO [Compound 1619] | > 100 | 1 to 50
38 | COc1ccc(C(=O)NCC(=O)c2ccc(OC)c(-c3cccc4ncccc34)n2)cc1OC [Compound 1519] | 10 to 100 | 1 to 50
39 | CCCC/C(=N/NC(=O)CNC(=O)c1ccc(OCC)c(OC)c1)c1csc2c(F)cccc12 [Compound 462B] | 10 to 100 | < 1
40 | C/C(=N\NC(=O)CNC(=O)c1ccc(N2CCCCC2)cc1)c1csc2ccccc12 [Compound 467] | > 100 | 1 to 50

Row | Compound | CC50 at 5 days [1] [µM] | EC50 [2] [µM]
41 | CCOc1ccc(C(=O)NCC(=O)N/N=C/c2c[nH]c3c(F)cccc23)cc1OC [Compound 400-27] | > 100 | 1 to 50
42 | COc1ccc(C(=O)NCC(=O)N2CCCN(c3csc4c(F)cccc34)C2=O)cc1OC [Compound 2800] | 10 to 100 | 1 to 50
43 | COc1cc(C(=O)NCC(=O)c2ccc(OC)c(-c3ccc(F)c(Cl)c3)n2)ccc1-n1cccn1 [Compound 2649] | 10 to 100 | 1 to 50
44 | COc1ccc(C(=O)NCC(=O)c2ccc(OC)c(-c3cccc(F)c3)n2)cc1OC [Compound 1527] | > 100 | 1 to 50
45 | COc1cc(C(=O)NCC(=O)c2cc(OC)c(OC)c(-c3csc4c(F)cccc34)n2)ccc1OCCO [Compound 2108] | > 100 | < 1
46 | COc1ccc(C(=O)NCC(=O)c2ccc(OC)c(-c3c[nH]nc3C)n2)cc1OC [Compound 1541] | > 100 | 1 to 50
47 | COCC/C(=N\NC(=O)CNC(=O)c1ccc(OC2COC2)c(OC)c1)c1csc2c(F)cccc12 [Compound 514A] | > 100 | < 1
48 | COC/C(=N\NC(=O)CNC(=O)c1ccc(OC)c(OC)c1)c1csc2ccccc12 [Compound 443] | > 100 | 1 to 50
49 | CNc1ccc2scc(/C=N/NC(=O)CNC(=O)c3ccc(OC)c(OC)c3)c2c1 [Compound 400-18] | > 100 | 1 to 50
50 | COc1cc(C(=O)NCC(=O)c2cc(C(=O)O)cc(-c3csc4c(F)cccc34)n2)ccc1OCCO [Compound 1258] | > 100 | 1 to 50
51 | COc1ccc(C(=O)NCC(=O)N/N=C2\CCCc3[nH]c4ccccc4c32)cc1OC [Compound 414] | 10 to 100 | 1 to 50
52 | CCc1cc(C(=O)CNC(=O)c2ccc(OCCO)c(OC)c2)nc(-c2ccc(F)cc2)c1 [Compound 2109] | 10 to 100 | < 1
53 | COc1cc(C(=O)NCC(=O)c2cc(C(C)(C)C)cc(-c3ccc(F)c(Cl)c3)n2)ccc1OCCO [Compound 2115] | 10 to 100 | < 1
54 | COc1ccc(C(=O)NCC(=O)c2cc(N(C)C)cc(-c3csc4c(F)cccc34)n2)cc1OC [Compound 1221] | > 100 | < 1
55 | COc1ccc(C(=O)NCC(=O)N/N=C(\C)c2c(C)sc3ccccc23)cc1OC [Compound 413] | 10 to 100 | 1 to 50
56 | COc1cc(C(=O)NCC(=O)c2cccc(-c3csc4c(F)cccc34)n2)ccc1OCCO [Compound 1209] | 10 to 100 | < 1
57 | COc1ccc(C(=O)NCC(=O)N2CCCC(c3csc4c(F)cccc34)=N2)cc1OC [Compound 3501] | 10 to 100 | < 1
58 | CNC(=O)c1ccc(-c2nc(C(=O)CNC(=O)c3ccc(OC)c(OC)c3)ccc2OC)cc1 [Compound 1504] | > 100 | 1 to 50
59 | COc1ccc(C(=O)NCC(=O)c2ccc3cccnc3c2)cc1OC [Compound 1700] | > 100 | 1 to 50
